Measurements published in US11260012B2, “Preserved silk protein fragment compositions and articles manufactured therefrom” (Evolved By Nature, Inc., priority 2015, dated 2022).

How the values were obtained:
[1] = Gel formation with vitamin C derivatives; format: physicochemical; details: for time to gel formation: 100 mg vitamin C derivative in 15 mL of 2% silk solution
Experimental: The Tables in FIGS. 89A-89B summarize embodiments of gels of the present disclosure. Ascorbic acid-2-glucoside was the most successful vitamin C derivative at gel formation with gel being formed in a 2% silk solution in 3 days. […] In all cases 100 mg of vitamin C derivative was mixed in 15 mL of 2% silk solution, and all gels had the same appearance as gels created with ascorbic acid.
Gels were also cast with combinations of two vitamin C options. In each case, at least one of the vitamin C options was known to cause gelation (L-ascorbic acid or ascorbic acid-2-glucoside). All combination gels were able to gel at 1% total vitamin C additive concentration. […] Without wishing to be bound by theory, it appears there is a relationship between vitamin C concentration, silk concentration, and gelation. An increase in vitamin C at a given concentration of silk will result in a longer time to gelation or inhibit gelation. This may be due to the vitamin C molecule physically blocking interaction between silk protein fragments or cross-linking of silk protein. Modification to pH may allow additional concentrations of vitamin C and derivatives thereof to be added.
Ascorbyl tetraisopalmitate is a highly viscous, oil soluble liquid that might need the help of an emulsifier to possible dissolve in aqueous silk solution.

[2] = system: C. albicans and A. brasiliensis; assay: Challenge testing of preservative effect, antifungal (Method A or Method B); format: cell-based
Experimental: Challenge testing of various compositions of the present disclosure to determine preservative effects was performed using the following methods: (1) Method A or (2) Method B. As used herein, a “count” refers to a typical measurement for measuring microbial (i.e., bacterial and fungal) growth.
Method B: • (1) Bacteria were evaluated and were considered to meet a threshold requirement by the following parameters: (i) […] measured no less than 3 log reduction from the initial calculated count after an incubation period of 14 days (i.e., 2 weeks), and (ii) bacteria measured no increase from an incubation period starting at the 14 day count and lasting until the 28 day count (i.e., 2 week incubation period of a 4 week/1 month experiment). • (2) C. albicans was evaluated and considered to meet a threshold requirement by the following parameters: (i) […] measured no less than a 1 log reduction after a 14 day incubation period, and (ii) C. albicans measured no increase from an incubation period starting at the 14 day count and lasting until the to the 28 day count (i.e., 2 week incubation period of a 4 week/1 month experiment). • (3) A. brasiliensis was evaluated and considered to meet a threshold requirement by the following parameters: A. brasiliensis measured no increase from the initial calculated count after an incubation period of 14 days (i.e., a 2 week incubation) and an incubation period of 28 days (i.e., a 4 week/1 month incubation).
Using Method A described above, if the formulation meets the requirements defined under Method A, the microbiological risk is considered to be tolerable (the cosmetic product is protected against microbial proliferation that may present a potential risk for the user) and the cosmetic product is deemed to meet the requirements of this International Standard without additional rationale.
For example, the pump is considered a protective device for risk reduction, i.e., prevention against bacterial and/or fungal growth.

[3] = HPLC chromatograms of vitamin C degradation, aged silk films vs unstabilized vitamin C; format: physicochemical; details: after 1 hour at ambient conditions without chemical stabilization
Experimental: FIGS. 36A and 36B show two HPLC chromatograms from samples comprising vitamin C. […] No degradation products were visible. FIG. 59 is a table summarizing the vitamin C concentration in silk protein fragment-films (2% silk films air dried at RT) of the present disclosure. In FIG. 59 processing conditions included 100° C. extraction for 20 min, RT rinse, LiBr in 60° C. oven for 4-6 hours. FIG. 60 is a table summarizing the stability of vitamin C in chemically stabilized solutions. FIGS. 89A-89B are tables summarizing vitamin C stability in SPF gels without chemical stabilizers as compared to chemically stabilized vitamin C in competitive anti-aging skincare products. […] Without wishing to be bound by theory, it appears there is a relationship between vitamin C concentration, silk concentration, and gelation. An increase in vitamin C at a given concentration of silk will result in a longer time to gelation or inhibit gelation. This may be due to the vitamin C molecule physically blocking interaction between silk protein fragments or cross-linking of silk protein.

[4] = in USSSC formulation, concentration of 0.1%

For `O=C1O[C@H]([C@@H](O)CO)C(O)=C1O[C@H]1O[C@H](CO)[C@@H](O)[C@H](O)[C@H]1O` [Ascorbic acid-2-glucoside, Ascorbic Acid-2-Glucoside], the “time to gel formation” value [1] was 3 days.

With `CCCCCCCCC(CCCCCC)C(=O)OC[C@H](OC(=O)C(CCCCCC)CCCCCCCC)[C@H]1OC(=O)C(OC(=O)C(CCCCCC)CCCCCCCC)=C1OC(=O)C(CCCCCC)CCCCCCCC` (stereo partly drawn) [Ascorbyl tetraisopalmitate, Ascorbyl Tetraisopalmitate] the “ability to dissolve or disperse in aqueous silk solution” value [1] was “unable to dissolve or be dispersed”.

In the case of `COc1ccc(C(=O)[O-])cc1.[Na+]` [Sodium anisate], the antifungal preservative effectiveness ([2]; in SER formulation, folded in after gelation, 0.5-1.0%, pH of ˜5.2-5.9, with lemongrass or rosehip oil) is reported as “effective antifungal preservative”, the antifungal preservative effectiveness ([2]; in SSC formulation, folded in after gelation, 0.1-1.0% and pH of 4.2-5.9) is reported as “effective antifungal preservative” and the antifungal preservative effectiveness ([2]; in USSSC formulation, folded in after gelation, 0.5-1.0% and pH of 4.2-5.9) is reported as “effective antifungal preservative”.

In the case of `O=C1O[C@H]([C@@H](O)CO)C([O-])=C1OP(=O)([O-])[O-].[Na+].[Na+].[Na+]` [Sodium ascorbyl phosphate from Aromantic, Sodium Ascorbyl Phosphate], the “time to gel formation” value [1] is reported as “failed to create a gel”.

For `O=C1O[C@H]([C@@H](O)CO)C([O-])=C1OP(=O)([O-])[O-].[Na+].[Na+].[Na+]` [Sodium ascorbyl phosphate from DSM supplier], the “time to gel formation” value [1] was 28 days.

In the case of `O=C([O-])c1ccccc1.[Na+]` [Sodium benzoate], the antifungal preservative effectiveness ([2]; in SER formulation, concentration of 0.1% and pH of 3.28) is reported as “effective antifungal preservative”, the antifungal preservative effectiveness ([2]; in SSC formulation, concentration of 0.1% and pH of 3.7 and 4.2) is reported as “effective antifungal preservative” and the antifungal preservative effectiveness [2, 4] is reported as “effective antifungal preservatives”.

With `C/C=C/C=C/C(=O)[O-].[K+]` [potassium sorbate] the antifungal preservative effectiveness [2, 4] was “effective antifungal preservatives”.

For `O=C1O[C@H]([C@@H](O)CO)C(O)=C1O` [vitamin C, L-ascorbic acid], the “vitamin C degradation products in HPLC chromatogram” value [3] was “degradation products are visible”.
